Data as given in patent US5298488A, “CM-chitin derivatives and use thereof” (Fuji Photo Film Co., Ltd., priority 1990, dated 1994).
No end group written: not given here. succinylated CM‑chitin = succinylated carboxymethyl-chitin (CM-chitin), conjugated to the peptide; sulfated CM‑chitin = sulfated carboxymethyl-chitin (CM-chitin), conjugated to the peptide; sulfated succinylated CM‑chitin = sulfated succinylated CM-chitin; succinylated CM‑Chitin = succinylated CM-chitin

Columns and labels:
vitronectin = experiment: Cell adhesion-inhibitory test against vitronectin (competitive assay, number of adhered cells); format: cell-based, human; conditions: endothelium cells of blood vessel, 37° C., one hour, 0 control 249
Description: (§1) A method for determining the activity of the CM-chitin derivatives of the present invention for inhibiting adhesion of cells to fibronectin or vitronectin will be described below. The competitive assays used herein have widely been employed tin the field of biochemistry and are detailed in, for instance, "Method in Enzymology", 1981, 82, pp. 803-831; and J. P. KOKAI Nos. Hei 1-309682 and Hei 2-174797.
(§2) Commercially available fibroneotin (derived from human; purchased from Seikaqaku Kogyo K. K.) and vitronectin (derived from human; purchased from Funakoshi Co., Ltd.) each was diluted to 1.0 μ1/ml and 2.0 μ1/ml with PBS (NaH2 PO4 0.005 M+NaCl 0.07 M), 0.5 ml of the resulting diluted solution was dispensed into a plastic plate having 24 wells and incubated at 37° C. overnight to perform coating of the plate. Then bovine serum albumin (BSA 1%) was added followed by incubation at 37° C. for one hour for inhibiting the occurrence of nonspecific adsorption, then washing with PBS in the usual manner and sufficient drainage to give an adsorption plate.
[…] Each of the solutions (0.25 ml) was dispensed to the plate prepared above, 0.25 ml of a suspension of endothelium cells of blood vessel (4×10^6 cells/ml) was added to the plate and incubated at 37° C. for one hour to thus cause cohesion of the cells. The plate was washed three times with DMEM medium to remove non-adhesive cells, then the adhered cells were peeled off with a 0.025% EDTA trypsin solution and stained with a 2% Trypan Blue solution to determine the number of the adhered cells.

fibronectin = experiment: Cell adhesion-inhibitory test against fibronectin (competitive assay, number of adhered cells); format: cell-based, human; conditions: endothelium cells of blood vessel, 37° C., one hour, 0 mg/ml control 160
Description: as §1, §2
A CM-chitin derivative obtained through lyophilization was diluted with Dulbecco's Modified Eagles Medium (hereunder referred to as "DMEM") to give solutions of the CM-chitin derivative having concentrations of 0, 0.25, 0.5, 1.0 and 1.5 mg/ml respectively. Each of the solutions (0.25 ml) was dispensed to the plate prepared above, 0.25 ml of a suspension of endothelium cells of blood vessel (4×10^6 cells/ml) was added to the plate and incubated at 37° C. for one hour to thus cause cohesion of the cells. The plate was washed three times with DMEM medium to remove non-adhesive cells, then the adhered cells were peeled off with a 0.025% EDTA trypsin solution and stained with a 2% Trypan Blue solution to determine the number of the adhered cells.

[1] = tested on: human plasma rich in platelet; experiment: Platelet coagulation-inhibitory activity in vitro, transmittance by aggregometer; format: cell-based; conditions: 37° C., 3 minutes preincubation; for Platelet Coagulation-Inhibitory Action IC50, ADP Stimulation: ADP stimulation (50 μM ADP solution); for Platelet Coagulation-Inhibitory Action IC50, Collagen Stimulation: collagen stimulation (200 μg/ml collagen solution)
Protocol: The platelet coagulation-inhibitory effect of the CM-chitin derivative of the present invention was assayed, in vitro, using human plasma rich in platelet. The experimental method will be described below.
To fresh human blood, there was added 1/9 volume of a 3.8% sodium citrate solution, the resulting mixture was centrifuged (1000 rpm; for 10 minutes) and the upper layer was separated as a plasma rich in platelet. A lyophilized CM-chitin derivative was dissolved in physiological saline to give a plurality of solutions having various concentrations ranging from 0 to 1.5 mg/ml. Each of the solutions (25 μ1) was added to 200 µl of the plasma, incubated at 37° C. for 3 minutes, then a 50 μM of ADP (adenosine diphosphate) solution or a 200 μg/ml collagen solution was added to determine the extent of coagulation in terms of transmittance determined by an aggregometer.
Rate of Coagulation Inhibition=(1-T/T .)×100%
T . : transmittance observed when a salt of CM-chitin derivative was not added.
T : transmittance observed when a salt of CM-chitin derivative was added.

[2] = concentration 10 mg/ml (so in the source)
[3] = concentration 50 mg/ml (so in the source)
[4] = concentration 100 mg/ml (so in the source)
[5] = concentration 300 mg/ml (so in the source)

Platelet Coagulation-Inhibitory Action IC50, ADP Stimulation [1] | Platelet Coagulation-Inhibitory Action IC50, Collagen Stimulation [1] | Substance | Cell Adhesion-Inhibitory effect Against Vitronectin (number of adhered cells) (vitronectin; [2]) | Cell Adhesion-Inhibitory effect Against Vitronectin (number of adhered cells) (vitronectin; [3]) | Cell Adhesion-Inhibitory effect Against Vitronectin (number of adhered cells) (vitronectin; [4]) | Cell Adhesion-Inhibitory effect Against Vitronectin (number of adhered cells) (vitronectin; [5]) | Cell Adhesion-Inhibitory effect Against Fibronectin (number of adhered cells) (fibronectin; concentration 0.5 mg/ml) | Cell Adhesion-Inhibitory effect Against Fibronectin (number of adhered cells) (fibronectin; concentration 1.0 mg/ml) | Cell Adhesion-Inhibitory effect Against Fibronectin (number of adhered cells) (fibronectin; concentration 1.5 mg/ml) | Cell Adhesion-Inhibitory effect Against Fibronectin (number of adhered cells) (fibronectin; concentration .25 mg/ml)
17 µg/mL | 7 µg/mL | Sulfated CM-Chitin-Arg-Gly-Asp-Ser ({sulfated CM‑chitin}-RGDS) [CM--chitin derivative-13] | 103 cell/well | 70 cell/well | 47 cell/well | 31 cell/well | 77 cell/well | 57 cell/well | 33 cell/well | 97 cell/well
12 µg/mL | 3 µg/mL | Sulfated CM-Chitin-Gly-Arg-Gly-Asp-Ser ({sulfated CM‑chitin}-GRGDS) [CM--chitin derivative-14] | 107 cell/well | 78 cell/well | 43 cell/well | 34 cell/well | 93 cell/well | 68 cell/well | 41 cell/well | 111 cell/well
15 µg/mL | 6 µg/mL | Sulfated Succinylated CM-Chitin-Arg-Gly-Asp-Ser ({sulfated succinylated CM‑chitin}-RGDS) [CM--chitin derivative-15] | 115 cell/well | 69 cell/well | 54 cell/well | 38 cell/well | 89 cell/well | 65 cell/well | 37 cell/well | 105 cell/well

Continued, substance first:

Substance | Platelet Coagulation-Inhibitory Action IC50, ADP Stimulation [1] | Platelet Coagulation-Inhibitory Action IC50, Collagen Stimulation [1] | Cell Adhesion-Inhibitory effect Against Vitronectin (number of adhered cells) (vitronectin; [2]) | Cell Adhesion-Inhibitory effect Against Vitronectin (number of adhered cells) (vitronectin; [3]) | Cell Adhesion-Inhibitory effect Against Vitronectin (number of adhered cells) (vitronectin; [4]) | Cell Adhesion-Inhibitory effect Against Vitronectin (number of adhered cells) (vitronectin; [5]) | Cell Adhesion-Inhibitory effect Against Fibronectin (number of adhered cells) (fibronectin; concentration 0.5 mg/ml) | Cell Adhesion-Inhibitory effect Against Fibronectin (number of adhered cells) (fibronectin; concentration 1.0 mg/ml) | Cell Adhesion-Inhibitory effect Against Fibronectin (number of adhered cells) (fibronectin; concentration 1.5 mg/ml) | Cell Adhesion-Inhibitory effect Against Fibronectin (number of adhered cells) (fibronectin; concentration .25 mg/ml)
Succinylated CM-Chitin Arg-Gly-Asp [CM--chitin derivative-9] | 28 µg/mL | 9 µg/mL | 139 cell/well | 88 cell/well | 77 cell/well | 58 cell/well | 97 cell/well | 85 cell/well | 65 cell/well | 121 cell/well
Succinylated CM-Chitin Gly-Arg-Gly-Asp-Ser (GRGDS; also: conjugated to succinylated CM-chitin) [CM--chitin derivative-8] | 24 µg/mL | 14 µg/mL | 130 cell/well | 95 cell/well | 69 cell/well | 47 cell/well | 113 cell/well | 80 cell/well | 59 cell/well | 130 cell/well
Succinylated CM-Chitin-(Arg-Gly-Asp)2 ({succinylated CM‑Chitin}-RGDRGD) [CM--chitin derivative-10] | 20 µg/mL | 13 µg/mL | 136 cell/well | 86 cell/well | 71 cell/well | 43 cell/well | 110 cell/well | 87 cell/well | 73 cell/well | 122 cell/well
Succinylated CM-Chitin-(Arg-Gly-Asp)3 ({succinylated CM‑Chitin}-RGDRGDRGD) [CM--chitin derivative-11] | 21 µg/mL | 12 µg/mL | 147 cell/well | 100 cell/well | 73 cell/well | 45 cell/well | 125 cell/well | 78 cell/well | 70 cell/well | 143 cell/well
Succinylated CM-Chitin-(Arg-Gly-Asp)5 ({succinylated CM‑Chitin}-RGDRGDRGDRGDRGD) [CM--chitin derivative-12] | 30 µg/mL | 8 µg/mL | 150 cell/well | 101 cell/well | 80 cell/well | 59 cell/well | 101 cell/well | 89 cell/well | 77 cell/well | 125 cell/well
Succinylated CM-Chitin-Arg-Gly-Asp-Ser ({succinylated CM‑chitin}-RGDS) [CM--chitin derivative-2] | 18 µg/mL | 10 µg/mL | 137 cell/well | 96 cell/well | 78 cell/well | 59 cell/well | 99 cell/well | 82 cell/well | 75 cell/well | 135 cell/well
